Reference: patent US11787762B2, “Tetralin and tetrahydroquinoline compounds as inhibitors of HIF-2alpha” (ARCUS BIOSCIENCES, INC., priority 2020, dated 2023)

Molecular target: T1, HIF-2α (Homo sapiens, UniProt Q99814)
T1 construct: host or cells: 786-O cells stably transduced with Cignal Lenti HIF Luc Reporter (only the reporter was introduced, not HIF-2α)
Assay: HIF-2α luciferase reporter assay in HIF-Luc-786-O cells
Format: cell-based
Method: Generation of HIF-2α Luciferase 786-O Cell Line:
Stable cell lines were generated by transducing 786-O cells (ATCC, CRL-1932) with Cignal Lenti HIF Luc Reporter lentivirus (CLS-007 L, Qiagen) according to the manufacturer's guidelines. In brief, 0.3×10^6 786-0 cells were transduced with lentivirus at a Multiplicity of Infection (MOI) of 25 for 24 hours. After transduction, cells were replenished with fresh RPMI 1640 Medium (Cat. No. 11875085, Thermo Fisher,) supplemented with 10% FBS (Cat. No. A3160502, Gibco), 2 mM GlutaMax (Cat. No. 35050-061, Invitrogen) and 100 units of penicillin and 100 μg of streptomycin/mL (Cat. No 15070063, Thermo Fisher) for another 24 hours. Antibiotic selection was performed in cell media containing 4 μg/mL of Puromycin. After 7 days of antibiotic selection, stable pools of surviving cells were expanded and used in a luciferase reporter assay.
HIF-2α Luciferase Reporter Assay:
On day one, 20 uL of HIF-Luc-786-0 cells in OptiMem (Cat. No. 31985088, Thermo Fisher) were seeded into each well of a 384 well white opaque plate (Corning 3570) and incubated at 37° C. and 5% CO2. Twenty microliters of 2× test compounds in OptiMem were added to cells after 4 hours of incubation. Final assay conditions comprised 20,000 cells per well in 1% DMSO with test compound concentrations ranging from 50 uM to 0 uM. After 20 hours incubation at 37° C. and 5% CO2, luciferase activity was determined using ONE-Glo Luciferase Assay Reagent (E6110, Promega) following the manufacture's recommended procedure. Briefly, 40 uL of ONE-Glo luciferase reagents were added to each well and luciferase signals were measured using an Envision 2102 Multilabel Reader. Percentage maximum activity in each test well was calculated based on DMSO (maximum activity) and no cell control wells (baseline activity). The IC50 values of the test compounds were determined from compound dose response curves fitted using a standard four parameter fit equation.

T1 sequence (Q99814 whole entry): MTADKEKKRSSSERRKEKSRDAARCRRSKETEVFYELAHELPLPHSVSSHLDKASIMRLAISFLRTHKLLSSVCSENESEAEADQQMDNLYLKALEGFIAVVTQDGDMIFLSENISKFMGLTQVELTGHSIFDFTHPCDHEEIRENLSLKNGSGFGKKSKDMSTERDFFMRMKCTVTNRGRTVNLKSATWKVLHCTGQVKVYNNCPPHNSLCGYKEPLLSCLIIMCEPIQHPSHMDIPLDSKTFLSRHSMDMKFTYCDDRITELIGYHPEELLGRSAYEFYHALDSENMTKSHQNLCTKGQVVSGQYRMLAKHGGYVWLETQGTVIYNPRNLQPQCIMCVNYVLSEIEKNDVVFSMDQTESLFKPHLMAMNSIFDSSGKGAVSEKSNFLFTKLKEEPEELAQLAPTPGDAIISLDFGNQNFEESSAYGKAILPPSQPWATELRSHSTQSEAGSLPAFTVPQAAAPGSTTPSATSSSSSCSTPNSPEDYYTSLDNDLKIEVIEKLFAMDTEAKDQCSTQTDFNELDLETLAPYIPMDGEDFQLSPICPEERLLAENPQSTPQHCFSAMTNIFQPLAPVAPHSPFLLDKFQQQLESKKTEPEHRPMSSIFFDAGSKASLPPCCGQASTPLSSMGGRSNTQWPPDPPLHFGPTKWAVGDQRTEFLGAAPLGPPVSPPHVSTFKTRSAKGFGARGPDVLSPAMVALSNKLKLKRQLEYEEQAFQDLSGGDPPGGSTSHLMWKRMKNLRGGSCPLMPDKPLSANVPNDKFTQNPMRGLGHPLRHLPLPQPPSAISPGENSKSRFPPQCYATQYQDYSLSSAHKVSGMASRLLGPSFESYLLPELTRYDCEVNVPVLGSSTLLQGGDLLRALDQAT

Row | Compound | IC50 (Table 3, 20 hours incubation) [nM] | IC50 (Table 1, 20 hours incubation) [nM]
1 | Cc1nc(S(C)(=O)=O)ccc1-c1ccc([C@H]2CC[C@H](F)c3cc(F)cc(C#N)c32)c2c1[C@H](O)C(F)(F)C2 [Example 198, (5S,8R)-8-[(1S)-2,2-difluoro-1-hydroxy-7-(2-methyl-6-methylsulfonylpyridin-3-yl)-1,3-dihydroinden-4-yl]-3,5-difluoro-5,6,7,8-tetrahydronaphthalene-1-carbonitrile] | 100 to 1000 | 
2 | Cc1nc2ccccn2c1-c1ccc([C@H]2CC[C@H](F)c3cc(F)cc(C#N)c32)c2c1[C@H](O)C(F)(F)C2 [Example 231, (5S,8R)-8-[(1S)-2,2-difluoro-1-hydroxy-7-(2-methylimidazo[1,2-a]pyridin-3-yl)-1,3-dihydroinden-4-yl]-3,5-difluoro-5,6,7,8-tetrahydronaphthalene-1-carbonitrile] | 100 to 1000 | 
3 | Cc1[nH]c(=O)ccc1-c1ccc([C@H]2CC[C@H](F)c3cc(F)cc(C#N)c32)c2c1[C@H](O)C(F)(F)C2 [Example 161, (5S,8R)-8-[(1S)-2,2-difluoro-1-hydroxy-7-(2-methyl-6-oxo-1H-pyridin-3-yl)-1,3-dihydroinden-4-yl]-3,5-difluoro-5,6,7,8-tetrahydronaphthalene-1-carbonitrile] | 100 to 1000 | 
4 | O=[N+]([O-])c1cc(S(=O)(=O)C(F)(F)F)ccc1N1CCOc2ccc(Cl)cc21 [Example 82] |  | > 1000
5 | N#Cc1cc(F)cc2c1[C@@H](c1ccc(-c3cnccc3F)c3c1CC(F)(F)[C@H]3O)CC[C@@H]2F [Example 163, (5S,8R)-8-[(1S)-2,2-difluoro-7-(4-fluoropyridin-3-yl)-1-hydroxy-2,3-dihydro-1H-inden-4-yl]-3,5-difluoro-5,6,7,8-tetrahydronaphthalene-1-carbonitrile] | < 100 | 
6 | Cn1cc(-c2ccc([C@H]3CC[C@H](F)c4cc(F)cc(C#N)c43)c3c2[C@H](O)C(F)(F)C3)nn1 [Example 146, (5S,8R)-8-[(1S)-2,2-difluoro-1-hydroxy-7-(1-methyl-1H-1,2,3-triazol-4-yl)-2,3-dihydro-1H-inden-4-yl]-3,5-difluoro-5,6,7,8-tetrahydronaphthalene-1-carbonitrile] | < 100 | 
7 | N#Cc1cc(F)cc2c1[C@@H](c1ccc(Nc3ccccn3)c3c1CC(F)(F)[C@H]3O)CC[C@@H]2F [Example 200, (5S,8R)-8-[(1S)-2,2-difluoro-1-hydroxy-7-(pyridin-2-ylamino)-1,3-dihydroinden-4-yl]-3,5-difluoro-5,6,7,8-tetrahydronaphthalene-1-carbonitrile] | 100 to 1000 | 
8 | CC(C)(O)c1ccc([C@H]2CC[C@H](F)c3cc(F)cc(C#N)c32)c2c1[C@H](O)C(F)(F)C2 [Example 226, (5S,8R)-8-[(1S)-2,2-difluoro-1-hydroxy-7-(2-hydroxypropan-2-yl)-1,3-dihydroinden-4-yl]-3,5-difluoro-5,6,7,8-tetrahydronaphthalene-1-carbonitrile] | < 100 | 
9 | Cc1ncccc1-c1ncc([C@H]2CC[C@H](F)c3cc(F)cc(C#N)c32)c2c1[C@H](O)[C@H](F)C2 [Example 227, (5S,8S)-3,5-difluoro-8-[(6R,7S)-6-fluoro-7-hydroxy-1-(2-methylpyridin-3-yl)-5H16H17H-cyclopenta[c]pyridin-4-yl]-5,6,7,8-tetrahydronaphthalene-1-carbonitrile] | 100 to 1000 | 
10 | N#Cc1ccc(-c2ccc([C@H]3CC[C@H](F)c4cc(F)cc(C#N)c43)c3c2[C@H](O)C(F)(F)C3)c(N)c1 [Example 197, (5S,8R)-8-[(1S)-7-(2-amino-4-cyanophenyl)-2,2-difluoro-1-hydroxy-1,3-dihydroinden-4-yl]-3,5-difluoro-5,6,7,8-tetrahydronaphthalene-1-carbonitrile] | < 100 | 
11 | N#Cc1cc(F)cc2c1[C@@H](c1ccc(-c3scnc3CO)c3c1CC(F)(F)[C@H]3O)CC[C@@H]2F [Example 191, (5S,8R)-8-[(1S)-2,2-difluoro-1-hydroxy-7-[4-(hydroxymethyl)-1,3-thiazol-5-yl]-1,3-dihydroinden-4-yl]-3,5-difluoro-5,6,7,8-tetrahydronaphthalene-1-carbonitrile] | < 100 | 
12 | Cc1c(-c2c(F)cc([C@H]3C[C@H](F)[C@H](F)c4cc(F)cc(C#N)c43)c3c2[C@H](O)C(F)(F)C3)cnn1C [Example 209, (5R,6S)-8-[(1S)-7-(1,5-dimethyl-1H-pyrazol-4-yl)-2,2,6-trifluoro-1-hydroxy-2,3-dihydro-1H-inden-4-yl]-3,5,6-trifluoro-5,6,7,8-tetrahydronaphthalene-1-carbonitrile] | < 100 | 
13 | N#Cc1cc(F)cc2c1[C@@H](c1ccc(-c3cncnc3N)c3c1CC(F)(F)[C@H]3O)CC[C@@H]2F [Example 177, (5S,8R)-8-[(1S)-7-(4-aminopyrimidin-5-yl)-2,2-difluoro-1-hydroxy-1,3-dihydroinden-4-yl]-3,5-difluoro-5,6,7,8-tetrahydronaphthalene-1-carbonitrile] | < 100 | 
14 | CN(C)C(=O)c1ccc([C@H]2CC[C@H](F)c3cc(F)cc(C#N)c32)c2c1[C@H](O)C(F)(F)C2 [Example 224, (3S)-7-[(1R,4S)-8-cyano-4,6-difluoro-1,2,3,4-tetrahydronaphthalen-1-yl]-2,2-difluoro-3-hydroxy-N,N-dimethyl-1,3-dihydroindene-4-carboxamide] | 100 to 1000 | 
15 | N#Cc1cc(F)cc2c1[C@@H](c1ccc(C#N)c3c1CC(F)(F)[C@H]3O)CC[C@@H]2F [Example 201, (5S,8R)-8-[(1S)-7-cyano-2,2-difluoro-1-hydroxy-1,3-dihydroinden-4-yl]-3,5-difluoro-5,6,7,8-tetrahydronaphthalene-1-carbonitrile] | < 100 | 
16 | Cc1ncc(-c2ccc([C@H]3C[C@H](F)[C@H](F)c4cc(F)cc(C#N)c43)c3c2[C@H](O)C(F)(F)C3)c(N)n1 [Example 221, (5R,6S,8R)-8-[(1S)-7-(4-amino-2-methylpyrimidin-5-yl)-2,2-difluoro-1-hydroxy-2,3-dihydro-1H-inden-4-yl]-3,5,6-trifluoro-5,6,7,8-tetrahydronaphthalene-1-carbonitrile] | < 100 | 
17 | N#Cc1cc(F)cc2c1[C@@H](c1ccc(-c3cnc4cnccn34)c3c1CC(F)(F)[C@H]3O)CC[C@@H]2F [Example 234, (5S,8R)-8-[(1S)-2,2-difluoro-1-hydroxy-7-imidazo[1,2-a]pyrazin-3-yl-1,3-dihydroinden-4-yl]-3,5-difluoro-5,6,7,8-tetrahydronaphthalene-1-carbonitrile] | < 100 | 
18 | N#Cc1cc(F)cc2c1[C@@H](c1ccc(-c3c[nH]c4ncccc34)c3c1CC(F)(F)[C@H]3O)CC[C@@H]2F [Example 243, (5S,8R)-8-[(1S)-2,2-difluoro-1-hydroxy-7-{1H-pyrrolo[2,3-b]pyridin-3-yl}-2,3-dihydro-1H-inden-4-yl]-3,5-difluoro-5,6,7,8-tetrahydronaphthalene-1-carbonitrile] | 100 to 1000 | 
19 | Cc1ncoc1-c1ccc([C@H]2CC[C@H](F)c3cc(F)cc(C#N)c32)c2c1[C@H](O)C(F)(F)C2 [Example 151, (5S,8R)-8-[(1S)-2,2-difluoro-1-hydroxy-7-(4-methyl-1,3-oxazol-5-yl)-1,3-dihydroinden-4-yl]-3,5-difluoro-5,6,7,8-tetrahydronaphthalene-1-carbonitrile] | < 100 | 
20 | Cn1nccc1-c1c(F)cc([C@H]2CC[C@H](F)c3cc(F)cc(C#N)c32)c2c1[C@H](O)[C@H](F)C2 [Example 210, (5S,8R)-8-[(1S,2R)-2,6-difluoro-1-hydroxy-7-(2-methylpyrazol-3-yl)-2,3-dihydro-1H-inden-4-yl]-3,5-difluoro-5,6,7,8-tetrahydronaphthalene-1-carbonitrile] | < 100 | 
21 | Cc1ccc([C@H]2CC[C@H](F)c3cc(F)cc(C#N)c32)c2c1[C@H](O)C(F)(F)C2 [Example 225, (5S,8R)-8-[(1S)-2,2-difluoro-1-hydroxy-7-methyl-1,3-dihydroinden-4-yl]-3,5-difluoro-5,6,7,8-tetrahydronaphthalene-1-carbonitrile] | < 100 | 
22 | Cc1nc(C#N)ncc1-c1c(F)cc([C@H]2CC[C@H](F)c3cc(F)cc(C#N)c32)c2c1[C@H](O)C(F)(F)C2 [Example 206, 5-[(3S)-7-[(1R,4S)-8-cyano-4,6-difluoro-1,2,3,4-tetrahydronaphthalen-1-yl]-2,2,5-trifluoro-3-hydroxy-2,3-dihydro-1H-inden-4-yl]-4-methylpyrimidine-2-carbonitrile] | < 100 | 
23 | N#Cc1cc(F)cc2c1[C@@H](c1ccc(-c3cc(F)ccc3N)c3c1CC(F)(F)[C@H]3O)CC[C@@H]2F [Example 235, (5S,8R)-8-[(1S)-7-(2-amino-5-fluorophenyl)-2,2-difluoro-1-hydroxy-1,3-dihydroinden-4-yl]-3,5-difluoro-5,6,7,8-tetrahydronaphthalene-1-carbonitrile] | < 100 | 
